According to patent US9943076B2, “Boron added cell cryopreservation medium” (YEDITEPE ÜNIVERSITESI, priority 2013, dated 2018):

Tests used:
[1] = test system: human tooth germ stem cells; conditions: 20 μg/ml NaB + 5% Me2SO, thawed after long term freezing
[2] = test system: human tooth germ stem cells
Description: The intermediate concentrations to be applied on the cells were prepared in the cell culture medium and were applied on the human tooth germ stem cells.

[3] = test system: human tooth germ stem cells; conditions: FIG. 2
Description: During the freezing process, different from the standard protocol, 20 μg/ml NaB was added to the cell cryopreservation medium. The control group was incubated by a standard cryopreservation medium. During freezing of the cells, different amounts of Me2SO (10%, 7%, 5% and 3% Me2SO) were added to the medium which contained 20% FBS (Fetal Bovine Serum) and 1% PSA (penicillin streptomycin amphotericin) in addition to 20 μg/ml NaB. Except for the group which was frozen for an extended period (6 months), the other cells were subjected to 4 repeating freeze-thaw processes. During each freezing process, one million cells were placed into one freezing tube and were frozen to −80° C. by using a freezing tank. The freezing tubes were transferred to −196° C. liquid nitrogen vapor one day later. After each freezing process, the cells were rapidly molten in a 37° C. water bath and viability analyses were performed with trypan blue.

## sodium pentaborate pentahydrate [NaB]
[1]
  differentiation of the cells into chondrogenic lineage: increase
  differentiation of the cells into odontogenic lineage: increase
  stem cell differentiation into adipose tissue: slight decrease
[1]; FIG. 3-4
  differentiation potentials of the cells (staining and immunocytochemistry analyses): no significant change
[2]
  concentration at which toxic effect was observed: ≥ 200 µg/mL
[3]; 20 μg/ml NaB in the presence of 5% Me2SO, repeatedly frozen cells and cells stored long term (6 months)
  toxic effect in cell viability analysis of frozen cells: decreased toxic effect
[3]; 20 μg/ml NaB, 5% Me2SO in cryopreservation medium
  cell viability over repeated freeze-thaw processes: started to increase during and after the second freeze-thaw process
